According to ChEMBL document CHEMBL3988181, “GlaxoSmithKline Published Kinase Inhibitor Set 2 Onchocerca lienalis Screening Data”:

Assay: GSK PKIS2: Screen against O. lienalis microfilariae, single point, at 3.1uM to assess reduction in motility. Compounds were also tested for cytotoxicity against Rhesus Monkey LLCMK2 cells.
Assay type: functional, Onchocerca lienalis, LLC-MK2
Conditions: CELL_LINE LLCMK2; CELL_SUPPLIER ECACC; CONC 3.1 uM; ORGANISM_SUPPLIER Extracted from peri-umbilical skin obtained from naturally infected cattle in the UK; temperature 37 degree C

Row | Structure (SMILES) | MOTILITY REDUCTION/CYTOTOXICITY
1 | c1ccc(-c2n[nH]cc2-c2ccnc(-c3ccc(CN4CCOCC4)cc3)c2)nc1 | 40%
2 | CS(=O)(=O)c1ccc(-c2nc3n(c2-c2ccncc2)CCC3)cc1 | 0%
3 | CNc1nccc(-c2c(-c3ccc(F)cc3)ncn2C2CCN(C)CC2)n1 | 13.4%
4 | CS(=O)(=O)CCNCc1nc(-c2ccc3ncnc(Nc4ccc5c(cnn5Cc5ccccc5)c4)c3c2)cs1 | 33.4%
5 | Cc1c(Cn2ccn3c(=O)nc(N4CCOCC4)cc23)cccc1C(F)(F)F | 0%
6 | COc1cc(Nc2nccc(-c3c(-c4cccc(NC(=O)c5c(F)cccc5F)c4)nn4ccccc34)n2)cc(OC)c1OC | 20%
7 | CC(C)S(=O)(=O)N1CCN(Cc2ccc3c(c2)nc(NC(=O)c2ccsc2)n3C[C@H](O)c2ccccc2)CC1 | 0%
8 | NS(=O)(=O)c1cccc(Nc2cc(-c3ccc(F)cc3)n[nH]2)c1 | 33.4%
9 | CSc1nccc(-c2c(-c3ccc(F)cc3)ncn2CCCN2CCOCC2)n1 | 33.4%
10 | COC(=O)c1cccc(NC(=O)NC2CCN(c3ccnc(NCc4ccc(F)cc4)n3)CC2)c1 | 20%
11 | c1ccc(-c2ccc3c(Nc4ccc5[nH]ccc5c4)ccnc3c2)nc1 | 33.4%
12 | CC(=O)N1CCN(c2ccc(Nc3nccc(-c4sc(C(C)C)nc4-c4cccc(NS(=O)(=O)c5cccc(Cl)c5)c4)n3)cn2)CC1 | 0%
13 | COc1cccc(C2=C(Nc3ccc(SC)cc3)C(=O)NC2=O)c1 | 0%
14 | Cc1cccc(Cn2ccn3c(=O)cc(N4CCOCC4)nc23)c1 | 0%
15 | Cc1n[nH]c2ccc(-c3cc(OC[C@@H](N)Cc4ccccc4)cnc3-c3ccoc3)cc12 | 0%
16 | COc1cccc(CC(=O)N2CCc3cc(-c4cn(C)c5ncnc(N)c45)ccc32)c1 | 0%
17 | O=c1[nH]ccc2nc(N[C@@H]3CCNC3)nc(Nc3ccc4c(c3)S(=O)(=O)CC4)c12 | 0%
18 | COc1ccc(S(=O)(=O)NC2CCN(c3cc(C)nc(Nc4cccc(C#N)c4)n3)CC2)cc1 | 0%
19 | Nc1nccc2scc(-c3ccc4c(c3)CCN4C(=O)Cc3ccccc3)c12 | 0%
20 | CNc1cc(-c2ccc3c(N)n[nH]c3c2)nc(N)n1 | 0%
21 | O=C1NC(=O)C(c2ccc(Cl)cc2)=C1Nc1ccc(O)c(Cl)c1 | 33.4%
22 | O=C(Nc1ccc2c(c1)OCO2)NC1CCN(c2ccnc(NCc3ccc(F)cc3)n2)CC1 | 33.4%

Row | Structure (SMILES) | MOTILITY REDUCTION/CYTOTOXICITY
23 | O=c1cc(N2CCOCC2)nc2n(Cc3cccc(Cl)c3Cl)ccn12 | 80%
24 | COc1cccc(NC(=O)NC2CCN(c3ccnc(Nc4ccc(F)cc4)n3)C2)c1 (stereo not drawn) | 13.4%
25 | CCN1CCN(CCCC(=O)Nc2n[nH]c3nc(-c4ccc(O)cc4)c(Br)cc23)CC1 | 20%
26 | N#CCc1ccc(Nc2nccc(Nc3ccc(Oc4ccccc4)cc3)n2)cc1 | 20%
27 | CCn1c(-c2nonc2N)nc2c(-c3ccccc3)ncc(OCCCN)c21 | 100%
28 | CN1CCC(n2cnc(-c3ccc(F)cc3)c2-c2ccnc(NC3CCNCC3)n2)CC1 | 0%
29 | O=C(O)c1ccc(-c2nc(-c3ccc(F)cc3)c(-c3ccncc3)[nH]2)cc1 | 0%
30 | COc1ccc2cc(-c3nc(-c4ccccc4C(C)C)[nH]c3-c3ccncc3)ccc2c1 | 100%
31 | CN(c1ccc2c(c1)nc(NCc1ccccc1)n2C)c1ccnc(Nc2ccc(CS(C)(=O)=O)cc2)n1 | 0%
32 | Cc1ccc(C)c(NC(=O)NCCNc2ccnc(Nc3ccc(F)cc3)n2)c1 | 86.7%
33 | O=C(Nc1n[nH]c2nc(-c3cccs3)c(Br)cc12)C1CCCC1 | 0%
34 | Nc1nc(-c2cccnc2)c(-c2ccnc3ccccc23)s1 | 33.4%
35 | Nc1ncnc2occ(-c3ccc(NC(=O)Nc4cc(C(F)(F)F)ccc4F)cc3)c12 [GW770249X] | 0%
36 | Cc1cc(NCC(c2ccccc2)c2ccccc2)nc(NCc2ccc(C(F)(F)F)cc2)n1 | 53.4%
37 | CN(c1ccc(NC(=O)N2CCN(CCCN3CCOCC3)CC2)cc1)c1ccnc(Nc2ccc(CS(C)(=O)=O)cc2)n1 | 0%
38 | COc1cccc(C2=C(Nc3ccc(Cl)c(C(=O)O)c3)C(=O)NC2=O)c1 | 0%
39 | NC(=O)c1sc(-n2cnc3ccccc32)cc1OCc1ccccc1F | 20%
40 | Cc1cc(C)cc(Oc2nccc(-c3c(-c4ccc(F)cc4)ncn3C3CCNCC3)n2)c1 | 20%
41 | CS(=O)(=O)CCNCc1nc(-c2ccc3ncnc(Nc4ccc(OCc5cccc(F)c5)c(Cl)c4)c3c2)cs1 | 0%
42 | COc1cc2nccc(Nc3ccc(NC(=O)c4ccc(C)cc4)c(O)c3)c2cc1OC | 0%
43 | CC(=O)c1c(-c2ccncc2)[nH]c(-c2ccncc2)c1C | 33.4%
44 | COc1cc(Nc2nccc(-c3c(-c4cccc(NC(=O)c5c(F)cccc5F)c4)nn4ncccc34)n2)cc(OC)c1OC | 16.7%

Row | Structure (SMILES) | MOTILITY REDUCTION/CYTOTOXICITY
45 | O=C(Nc1cccc(-c2nn3ncccc3c2-c2ccnc(Nc3cccnc3)n2)c1)c1c(F)cccc1F | 0%
46 | COc1cc(Nc2nccc(N3CCC(NC(=O)Nc4cc(C)ccc4C)C3)n2)cc(OC)c1OC (stereo not drawn) | 0%
47 | CNc1nccc(-c2c(-c3ccc(F)cc3)ncn2CCCN2CCOCC2)n1 | 0%
48 | O=C(Nc1n[nH]c2cc(-c3ccco3)ccc12)C1CC1 | 0%
49 | COc1cc(Nc2nccc(N3CCC(NC(=O)Nc4cccc(C(C)=O)c4)C3)n2)cc(OC)c1OC (stereo not drawn) | 100%
50 | O=C1NC(=O)C(c2ccc(Cl)cc2)=C1Nc1cccc(O)c1 | 13.4%
51 | COc1ccc(-n2cnc3c(N)ncnc32)cc1 | 0%
52 | COc1ccc(COc2cc(-n3cnc4ccccc43)sc2C(N)=O)cc1 | 0%
53 | O=C(Nc1cccc(-c2nn3ncccc3c2-c2ccnc(Nc3ccccc3)n2)c1)c1c(F)cccc1F | 0%
54 | CS(=O)(=O)c1ccccc1-c1nc(-c2ccc(F)cc2)c(-c2ccncc2)[nH]1 | 33.4%
55 | COC(=O)Nc1nc2ccc(Oc3ccc(NC(=O)Nc4cc(C(F)(F)F)ccc4Cl)cc3)cc2[nH]1 | 0%
56 | CSc1cccc2c(-c3ccncn3)c(-c3ccc(F)cc3)nn12 | 33.4%
57 | Cc1ccc(C)c(Oc2nccc(-c3c(-c4ccc(F)cc4)ncn3C3CCNCC3)n2)c1 | 26.7%
58 | Nc1nc(N)c2[nH]c(-c3ccccc3)nc2n1 | 20%
59 | C[C@@H](Oc1cc(-n2cnc3cc(-c4ccncc4)ccc32)sc1C(N)=O)c1ccccc1Cl | 0%
60 | Cc1ccc(NC(=O)c2ccnc(N3CCN(C)CC3)c2)cc1-c1ccc(C(=O)NCC2CC2)cc1 | 0%
61 | Cc1cccc(Nc2nc(N[C@H]3CCNC3)ncc2C(N)=O)c1 | 26.7%
62 | Fc1cc(Cl)ccc1Nc1ccnc2cc(-c3ccc(CN4CCSCC4)o3)ccc12 | 33.4%
63 | COc1cc2ncn(-c3cc(OCc4sccc4Cl)c(C(N)=O)s3)c2cc1OC | 13.4%
64 | Nc1n[nH]c2nnc(-c3ccccc3)c(-c3ccccc3)c12 | 0%
65 | COC(=O)Nc1nc2ccc(Oc3ccc(CC(=O)Nc4cc(C(F)(F)F)ccc4F)cc3)cc2[nH]1 | 33.4%
66 | COc1cc(Nc2nccc(N3CCC(NC(=O)Nc4ccc5c(c4)OCO5)C3)n2)cc(OC)c1OC (stereo not drawn) | 0%

Row | Structure (SMILES) | MOTILITY REDUCTION/CYTOTOXICITY
67 | CC(C)c1ccc(O)cc1Nc1ccnc2ccc(C(F)(F)F)cc12 | 33.4%
68 | COC(=O)c1cccc(NC(=O)NC2CCN(c3ccnc(Nc4ccc(OC)cc4)n3)C2)c1 (stereo not drawn) | 66.7%
69 | COC(=O)C(Cc1ccccc1)NC(=O)NC1CCN(c2ccnc(Nc3ccc(F)cc3)n2)C1 (stereo not drawn) | 13.4%
70 | O=C1NC(=O)C(c2ccc(Cl)cc2)=C1Nc1ccc(O)cc1 | 0%
71 | COc1ccc(Nc2nccc(N3CCC(NC(=O)Nc4cc(C)ccc4C)C3)n2)cc1 (stereo not drawn) | 0%
72 | Cn1cncc1C(=O)NC1CCN(c2ccnc(Nc3ccc(F)cc3)n2)C1 (stereo not drawn) | 0%
73 | COc1cccc(NC(=O)NCCNc2ccnc(Nc3ccc(F)cc3)n2)c1 | 33.4%
74 | O=c1cc(N2CCOCC2)nc2n(Cc3ccc(F)c(Cl)c3)ccn12 | 0%
75 | COc1nccc(-c2c(-c3ccc(F)cc3)ncn2CCCN2CCOCC2)n1 | 0%
76 | COC(=O)Nc1nc2cc(Oc3ccc(NC(=O)Nc4cc(C(F)(F)F)ccc4F)cc3)ccc2[nH]1 | 0%
77 | NS(=O)(=O)c1cccc(-c2ccc3nccc(-c4cccc(S(N)(=O)=O)c4)c3c2)c1 | 0%
78 | NC(=O)c1cccc(Nc2nccc(Nc3ccc(Oc4c(Cl)cccc4Cl)c(Cl)c3)n2)c1 | 0%
79 | CN(C1=C(c2ccccc2)C(=O)NC1=O)c1ccccc1 | 0%
80 | N#Cc1cccc(C(=O)NC2CCN(c3ccnc(Nc4ccc(F)cc4)n3)C2)c1 (stereo not drawn) | 20%
81 | COc1ccc(Nc2nccc(N3CCC(NC(=O)Nc4cccc(C(C)=O)c4)C3)n2)cc1 (stereo not drawn) | 0%
82 | COc1cccc(C2=C(Nc3cccc(Cl)c3)C(=O)NC2=O)c1 | 0%
83 | COc1cc2nccc(Nc3ccc(OCc4ccc(NC(C)=O)cc4)cc3)c2cc1OC | 0%
84 | CC[C@@H]1CO[C@H](C(=O)Nc2ccccc2)CN1c1cc(-c2ccc3c(N)n[nH]c3c2)nc(NC)n1 | 0%
85 | Nc1n[nH]c2ncc(-c3ccccc3)cc12 | 0%
86 | CN1C(=O)C(Nc2ccccc2)=C(c2ccccc2)C1=O | 13.4%
87 | FC(F)(F)c1cc(Br)cc(Nc2nccc(-c3cnn4ncccc34)n2)c1 | 46.7%
88 | Fc1ccccc1COc1ccc(Nc2ncnc3ccc(-c4nnc(C(F)(F)F)o4)cc23)cc1Cl | 0%
